Measured values as given in patent publication US12161115B2, “Herbicidal compounds” (SYNGENTA CROP PROTECTION AG, priority 2019, dated 2024).

How the values were obtained:
Type in all cases: in vivo
[1] = test system: Setaria faberi (SETFA); assay: Post-emergence herbicidal glasshouse test; settings: 250 g/Ha, evaluated after 13 days
Protocol: (§1) Seeds of a variety of test species are sown in standard soil in pots (Lolium perenne (LOLPE), Setaria faberi (SETFA), Alopecurus myosuroides (ALOMY), Echinochloa crus-galli (ECHCG), Avena fatua (AVEFA)). After cultivation for one day (pre-emergence) or after 8 days cultivation (post-emergence) under controlled conditions in a glasshouse (at 24/16° C., day/night; 14 hours light; 65% humidity), the plants are sprayed with an aqueous spray solution derived from the formulation of the technical active ingredient in acetone/water (50:50) solution containing 0.5% Tween 20 (polyoxyethelyene sorbitan monolaurate, CAS RN 9005-64-5). Compounds are applied at 250 g/h. The test plants are then grown in a glasshouse under controlled conditions in a glasshouse (at 24/16° C., day/night; 14 hours light; 65% humidity) and watered twice daily. After 13 days for pre and post-emergence, the test is evaluated for the percentage damage caused to the plant. The biological activities are shown in the following table on a five point scale (5=80-100%; 4=60-79%; 3=40-59%; 2=20-39%; 1=0-19%). NT=not tested.

[2] = test system: Lolium perenne (LOLPE); assay: Post-emergence herbicidal glasshouse test; settings: 250 g/Ha, evaluated after 13 days
Protocol: as §1

[3] = test system: Avena fatua (AVEFA); assay: Post-emergence herbicidal glasshouse test; settings: 250 g/Ha, evaluated after 13 days
Protocol: as §1

[4] = test system: Alopecurus myosuroides (ALOMY); assay: Post-emergence herbicidal glasshouse test; settings: 250 g/Ha, evaluated after 13 days
Protocol: as §1

[5] = test system: Echinochloa crus-galli (ECHCG); assay: Post-emergence herbicidal glasshouse test; settings: 250 g/Ha, evaluated after 13 days
Protocol: as §1

[6] = test system: barley crop plants; assay: Crop phytotoxicity comparison, post-emergence; settings: post-emergence
Protocol: as §1
(§2) Using procedures outlines above, wheat and barley crop plants are treated, post-emergence with compounds A1, A3 or A8 of the present invention or comparator compound C1 (Compound A-38 from WO2014/096289) at the application rates indicated. The compounds were also applied in conjunction with the safener compound cloquintocet-mexyl (CQC) at 50 g/ha.

[7] = test system: wheat crop plants; assay: Crop phytotoxicity comparison, post-emergence; settings: post-emergence
Protocol: as §1, §2

[8] = test system: Setaria faberi (SETFA); assay: Pre-emergence herbicidal glasshouse test; settings: 250 g/Ha, evaluated after 13 days
Protocol: as §1

[9] = test system: Lolium perenne (LOLPE); assay: Pre-emergence herbicidal glasshouse test; settings: 250 g/Ha, evaluated after 13 days
Protocol: as §1

[10] = test system: Avena fatua (AVEFA); assay: Pre-emergence herbicidal glasshouse test; settings: 250 g/Ha, evaluated after 13 days
Protocol: as §1

[11] = test system: Alopecurus myosuroides (ALOMY); assay: Pre-emergence herbicidal glasshouse test; settings: 250 g/Ha, evaluated after 13 days
Protocol: as §1

[12] = test system: Echinochloa crus-galli (ECHCG); assay: Pre-emergence herbicidal glasshouse test; settings: 250 g/Ha, evaluated after 13 days
Protocol: as §1

CC#Cc1cc(C)c(C2C(=O)CC3(CCN(C(=O)C(C)=NN(C)C)CC3)CC2=O)c(C)c1 [Compound A8, 3-[2-(dimethylhydrazono)propanoyl]-9-(2,6-dimethyl-4-prop-1-ynyl-phenyl)-3-azaspiro[5.5]undecane-8,10-dione]
significantly less damaging: damage to barley crop compared to prior art compound C1 ([6]; summary of Table B3) | damage to wheat crop compared to prior art compound C1 ([7]; summary of Table B3)
10%: % phytotoxicity observed, Wheat ([7]; 60 g/ha) | % phytotoxicity observed, Wheat ([7]; 60 g/ha + safener cloquintocet-mexyl (CQC) at 50 g/ha)
5 (5=80-100%): percentage damage caused to the plant, five point scale, SETFA [1] | percentage damage caused to the plant, five point scale, LOLPE [2] | percentage damage caused to the plant, five point scale, AVEFA [3] | percentage damage caused to the plant, five point scale, ALOMY [4] | percentage damage caused to the plant, five point scale, ECHCG [5] | percentage damage caused to the plant, five point scale, SETFA [8] | percentage damage caused to the plant, five point scale, LOLPE [9] | percentage damage caused to the plant, five point scale, AVEFA [10] | percentage damage caused to the plant, five point scale, ALOMY [11] | percentage damage caused to the plant, five point scale, ECHCG [12]
0%: % phytotoxicity observed, Barley ([6]; 30 g/ha) | % phytotoxicity observed, Barley ([6]; 60 g/ha) | % phytotoxicity observed, Wheat ([7]; 30 g/ha)
